From ChEMBL document CHEMBL1145452, “In vitro structure-activity relationship and in vivo characterization of 1-(aryl)-3-(4-(amino)benzyl)urea transient receptor potential vanilloid 1 antagonists” (J Med Chem, 2007)
Values after ≈ are worked out from the molar mass of the structure shown.

How the values were obtained:
[1] = molecular target: Transient receptor potential cation channel subfamily V member 1 (Homo sapiens, UniProt Q8NER1); experiment: Antagonist activity at human TRPV1 receptor by calcium influx assay; assay type: functional
Chain of Transient receptor potential cation channel subfamily V member 1 (Q8NER1 whole entry): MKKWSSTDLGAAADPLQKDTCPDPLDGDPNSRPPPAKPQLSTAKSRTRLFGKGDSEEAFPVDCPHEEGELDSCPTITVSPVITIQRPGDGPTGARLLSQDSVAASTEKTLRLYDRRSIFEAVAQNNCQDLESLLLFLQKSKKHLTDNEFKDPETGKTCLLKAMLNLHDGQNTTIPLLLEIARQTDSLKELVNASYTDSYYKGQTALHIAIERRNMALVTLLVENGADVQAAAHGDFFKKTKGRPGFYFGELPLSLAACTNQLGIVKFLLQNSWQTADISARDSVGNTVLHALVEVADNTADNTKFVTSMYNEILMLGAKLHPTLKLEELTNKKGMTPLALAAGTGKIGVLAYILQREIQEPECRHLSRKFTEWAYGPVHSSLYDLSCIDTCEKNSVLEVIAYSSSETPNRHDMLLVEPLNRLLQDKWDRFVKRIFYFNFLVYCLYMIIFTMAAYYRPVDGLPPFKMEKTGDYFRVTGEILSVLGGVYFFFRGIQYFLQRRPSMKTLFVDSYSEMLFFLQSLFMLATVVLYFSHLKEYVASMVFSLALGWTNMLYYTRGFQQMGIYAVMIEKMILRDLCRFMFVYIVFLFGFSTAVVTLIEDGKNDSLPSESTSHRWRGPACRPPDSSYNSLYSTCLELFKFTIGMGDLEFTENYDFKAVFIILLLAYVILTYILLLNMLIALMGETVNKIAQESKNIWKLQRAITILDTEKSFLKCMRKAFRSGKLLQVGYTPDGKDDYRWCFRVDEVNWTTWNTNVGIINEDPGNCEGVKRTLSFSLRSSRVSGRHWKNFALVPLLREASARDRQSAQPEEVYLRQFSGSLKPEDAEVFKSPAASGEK

[2] = Oral bioavailability in dog; assay type: ADME, organism-based, Canis lupus familiaris; conditions: in vivo
[3] = Cmax in rat at 10 umol/kg, po; assay type: ADME, organism-based; set-up: dose 10 umol/kg, route oral; conditions: in vivo
Liver microsomes [4] = experiment: Stability in rat liver microsomes at 0.5 uM after 30 mins; assay type: ADME, Microsome; conditions: 0.5 h
[5] = Half life in rat at 10 umol/kg; assay type: ADME, organism-based; conditions: in vivo
[6] = Oral bioavailability in rat at 10 umol/kg, po; assay type: ADME, organism-based; conditions: in vivo
[7] = Volume of distribution in rat at 10 umol/kg; assay type: ADME, organism-based; conditions: in vivo, read-out: Vbeta
Rattus norvegicus = experiment: Effect on CFA-induced thermal hyperalgesia in po dosed rat; assay type: functional
Liver microsomes [8] = experiment: Stability in human liver microsomes at 0.5 uM after 30 mins; assay type: ADME, Microsome; conditions: 0.5 h
[9] = Plasma clearance in rat at 10 umol/kg; assay type: ADME, organism-based
[10] = Aqueous solubility at pH 2.0; assay type: physicochemical
Translocator protein = Translocator protein (Homo sapiens, UniProt P30536); experiment: Binding affinity to peripheral benzodiazepine receptor
Chain of Translocator protein (P30536 whole entry): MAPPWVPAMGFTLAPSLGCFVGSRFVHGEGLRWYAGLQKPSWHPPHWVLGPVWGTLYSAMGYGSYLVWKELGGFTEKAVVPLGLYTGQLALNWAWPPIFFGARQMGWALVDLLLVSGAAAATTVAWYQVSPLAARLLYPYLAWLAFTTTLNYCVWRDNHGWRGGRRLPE

[11] = Protein binding in rat plasma; assay type: ADME, cell-free; conditions: read-out: PPB (converted)
Adenosine receptor A3 = molecular target: T1, Adenosine receptor A3 (Homo sapiens, UniProt P0DMS8); experiment: Binding affinity to adenosine A3 receptor
T1 sequence (P0DMS8 whole entry): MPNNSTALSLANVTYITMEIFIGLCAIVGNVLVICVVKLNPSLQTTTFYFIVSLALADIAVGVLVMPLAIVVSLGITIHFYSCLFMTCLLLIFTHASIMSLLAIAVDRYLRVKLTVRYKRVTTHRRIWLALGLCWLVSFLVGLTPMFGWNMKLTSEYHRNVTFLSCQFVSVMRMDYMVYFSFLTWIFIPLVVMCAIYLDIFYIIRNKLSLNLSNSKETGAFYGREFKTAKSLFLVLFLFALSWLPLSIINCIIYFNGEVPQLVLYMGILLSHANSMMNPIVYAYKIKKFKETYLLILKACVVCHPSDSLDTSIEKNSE

[12] = Binding affinity to sodium channel; set-up: species or system Homo sapiens
Homo sapiens = species: Homo sapiens; experiment: Protein binding in human plasma; conditions: read-out: PPB (converted)
[13] = Aqueous solubility at pH 6.8; assay type: physicochemical; conditions: buffer

Compound | IC50 [1] [nM] | other results
O=C(NCc1ccc(N2CCOCC2)cc1)Nc1cccc2cnccc12 | 91 | –
O=C(NCc1ccc(N2CCCCCC2)c(F)c1)Nc1cccc2cnccc12 | 2.8 | bioavailability [2]: 18%; Cmax [3]: 150 ng/mL; Stability (Liver microsomes [4]): 366 pmol/min/mg; half-life [5]: 41.4 min; bioavailability [6]: 10%; Vd [7]: 1.8 L/kg; ED50 (Rattus norvegicus): 30 µmol/kg; Stability (Liver microsomes [8]): 1223 pmol/min/mg; clearance [9]: 30 mL/min/kg
O=C(NCc1ccc(N2[C@@H]3CCC[C@H]2CC3)cc1C(F)(F)F)Nc1cccc2[nH]ncc12 | 54.5 | –
O=C(NCc1ccc(N2CCCCCC2)cc1C(F)(F)F)Nc1cccc2cnccc12 | 5.7 | –
O=C(NCc1cc(F)c(N2[C@@H]3CCC[C@H]2CC3)c(F)c1)Nc1cccc2[nH]ncc12 | 12.6 | –
O=C(NCc1ccc(N2[C@@H]3CCC[C@H]2CC3)c(F)c1)Nc1cccc2[nH]ncc12 | 14.8 | Stability (Liver microsomes [4]): 394 pmol/min/mg; Stability (Liver microsomes [8]): 516 pmol/min/mg
O=C(NCc1ccc(N2[C@@H]3CCC[C@H]2CC3)cc1)Nc1cccc2cnccc12 | 3.3 | Stability (Liver microsomes [4]): 247 pmol/min/mg; Stability (Liver microsomes [8]): 818 pmol/min/mg
Cc1cc2c(NC(=O)NCc3ccc(N4CCCCCC4)cc3)cccc2cn1 | 3.8 | –
O=C(NCc1ccc(N2CCCCCC2)c(F)c1)Nc1cccc2[nH]ncc12 | 14.2 | –
O=C(NCc1ccc(N2[C@@H]3CCC[C@H]2CC3)c(F)c1F)Nc1cccc2[nH]ncc12 | 25.5 | –
O=C(NCc1ccc(N2CCCCCC2)cc1)Nc1cccc2cnccc12 | 3.3 | –
Cc1cc2c(NC(=O)NCc3ccc(N4Cc5ccccc5C4)c(F)c3)cccc2cn1 | 7360 | –
Cn1c2ccccc2c2cc(CNC(=O)Nc3cccc4[nH]ncc34)ccc21 | 902 | –
CC(C)c1cc(N2[C@@H]3CCC[C@H]2CC3)ccc1CNC(=O)Nc1cccc2[nH]ncc12 | 35.3 | –
CC(C)(C)CCc1cc(N2[C@@H]3CCC[C@H]2CC3)ccc1CNC(=O)Nc1cccc2[nH]ncc12 | 10.3 | –
O=C(NCc1ccc(N2[C@@H]3CCC[C@H]2CC3)c(C(F)(F)F)c1)Nc1cccc2[nH]ncc12 | 26.9 | bioavailability [2]: 46%; solubility [10]: 14 µg/mL (≈ 31.6 µM); IC50 (Translocator protein): > 5 µM; fraction unbound [11]: 0.014; IC50 (Adenosine receptor A3): > 5 µM; Cmax [3]: 240 ng/mL; IC50 [12]: > 5 µM; Stability (Liver microsomes [4]): 315 pmol/min/mg; half-life [5]: 84 min; bioavailability [6]: 21%; Vd [7]: 2.1 L/kg; fraction unbound (Homo sapiens): 0.03; ED50 (Rattus norvegicus): 20 µmol/kg; solubility [13]: < 1 ng/mL; Stability (Liver microsomes [8]): 445 pmol/min/mg; clearance [9]: 16.7 mL/min/kg
O=C(NCc1ccc(N2CCCCCCC2)cc1)Nc1cccc2cnccc12 | 4.7 | –
O=C(NCc1ccc(N2CCOCC2)cc1)Nc1cccc2cnc(Cl)cc12 | 156 | –
O=C(NCc1ccc(N2[C@@H]3CCC[C@H]2CC3)c(Br)c1)Nc1cccc2[nH]ncc12 | 43.2 | –
O=C(NCc1ccc(C(F)(F)F)cc1)Nc1cccc2cnccc12 | 2.1 | Stability (Liver microsomes [4]): 383 pmol/min/mg; Stability (Liver microsomes [8]): 135 pmol/min/mg

Compound | IC50 [1] [nM] | other results
O=C(NCc1cc(F)c(N2[C@@H]3CC[C@H]2CC2(C3)OCCO2)cc1F)Nc1cccc2[nH]ncc12 | 82 | –
CC1CN(c2ccc(CNC(=O)Nc3cccc4cnccc34)cc2)CC(C)O1 (stereo not drawn) | 258 | –
O=C1C[C@H]2CC[C@@H](C1)N2c1cc(F)c(CNC(=O)Nc2cccc3[nH]ncc23)cc1F | 157 | –
Nc1cc2c(NC(=O)NCc3ccc(N4CCCCCC4)cc3)cccc2cn1 | 9.8 | –
O=C(NCc1ccc(N2CCCCCC2)cc1Cl)Nc1cccc2cnccc12 | 5.2 | –
O=C(NCc1cc(F)c(N2CCOCC2)c(F)c1)Nc1cccc2cnccc12 | 9.3 | –
O=C(NCc1ccc(N2CCCCCC2)cc1C(F)(F)F)Nc1cccc2[nH]ncc12 | 133 | –
CN(C)c1ccc(CNC(=O)Nc2cccc3cnccc23)cc1 | 157 | –
Cc1cc(CNC(=O)Nc2cccc3[nH]ncc23)ccc1N1[C@@H]2CCC[C@H]1CC2 | 19.8 | –
O=C(NCc1ccc(N2CCCCC2)cc1)Nc1cccc2cnccc12 | 7.3 | –
CCN1CCc2cc(CNC(=O)Nc3cccc4[nH]ncc34)ccc21 | 285 | –
O=C(NCc1ccc(N2CCCCCC2)cc1Cl)Nc1cccc2[nH]ncc12 | 190 | –
O=C(NCc1ccc(N2CCCCCC2)c(C(F)(F)F)c1)Nc1cccc2cnccc12 | 4.6 | Stability (Liver microsomes [4]): 689 pmol/min/mg; Stability (Liver microsomes [8]): 643 pmol/min/mg
CC1CCN(c2ccc(CNC(=O)Nc3cccc4cnccc34)cc2)CC1 | 9.3 | –
Cn1ncc2c(NC(=O)NCc3ccc(N4[C@@H]5CCC[C@H]4CC5)cc3Cc3ccccc3)cccc21 | 19 | –
O=C(NCc1ccc(N2[C@@H]3CCC[C@H]2CC3)cc1)Nc1cccc2[nH]ncc12 | 18 | –
O=C(NCc1ccc(N2[C@@H]3CCC[C@H]2CC3)cc1Cl)Nc1cccc2[nH]ncc12 | 58.8 | –
O=C(NCc1ccc(N2[C@@H]3CCC[C@H]2CC3)c(Cl)c1)Nc1cccc2[nH]ncc12 | 20.4 | –
O=C(NCc1cc(F)c(N2CCCCCC2)c(F)c1)Nc1cccc2[nH]ncc12 | 39.3 | –
Cc1cc(N2[C@@H]3CCC[C@H]2CC3)ccc1CNC(=O)Nc1cccc2[nH]ncc12 | 29 | –
